What was measured:
anti-GBM nephritic mice = test: anti-GBM nephritic mice: proteinuria, serum cholesterol, blood urea nitrogen and serum creatinine; assay type: in vivo, BALB/c mice; details: for Total Evaluation: 3 × (number of + in proteinuria) + (number of + in serum parameter); for Proteinuria 5th day: 5th day from intravenous injection of anti-GBM serum; for Proteinuria 5th day / Proteinuria 10th day / Serum Parameter BUN (blood urea nitrogen) / Serum Parameter S-Ch (serum cholesterol) / Serum Parameter S-Cr (serum creatinine): oral; for Proteinuria 10th day: 10th day from intravenous injection of anti-GBM serum; for Serum Parameter BUN (blood urea nitrogen) / Serum Parameter S-Ch (serum cholesterol) / Serum Parameter S-Cr (serum creatinine): 11th day;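 as to Proteinuria 10th day: minus not effective plus trend double p<0.05 triple p<0.01 quadruple p<0.001 improvement vs control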;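 as to Proteinuria 5th day: minus not effective plus trend double p<0.05 triple p<0.01 quadruple p<0.001 improvement vs control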;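 as to Serum Parameter BUN (blood urea nitrogen): minus not effective plus trend double p<0.05 triple p<0.01 quadruple p<0.001 improvement vs control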;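 as to Serum Parameter S-Ch (serum cholesterol): minus not effective plus trend double p<0.05 triple p<0.01 quadruple p<0.001 improvement vs control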
Experimental: BALB/c mice (5 weeks old, purchased from Nippon Charles Liver) were quarantined and adapted for about 1 week before subjecting to experiments. These mice were divided into several groups for the experiments so that average body weights and standard deviations were almost identical in all groups. Mouse anti-GBM (glomerular basement membrane) nephritis was caused by immunizing the mice with rabbit γ-globulin (1 mg) with Freund's complete adjuvant and intravenously injecting rabbit anti-mouse GBM serum on the fifth day from the immunization. Each compound tested was forcedly orally administered via an oral sonde almost simultaneously with the intravenous injection of the anti-GBM serum. On the 5th and 10th days from the intravenous injection, urine was taken by a plastic metabolic cage and proteinuria was measured (Ohtsuka Tonein TP2). On the 11th day, blood was taken by cutting the carotid and serum cholesterol (S--Ch), blood urea nitrogen (BUN) and serum creatinine (S--Cr) were measured by Toshiba TBA-380 autoanalyzer.

active TGF-β1 = test: production of active TGF-β1 in glomeruli isolated from nephritic mice (ELISA); assay type: cell-based, BALB/c male mice; details: Mus musculus, 10^-6 M, 48 hours, read-out: Inhibition rate (%) of production of active TGF-β1
Experimental: (§1) BALB/c male mice were adapted in a feeding chamber for 1 week before subjecting to experiments. Nephritis was induced by subcutaneously injecting an emulsion of rabbit γ-globulin and Freund's complete adjuvant on the back in a dose amount of 1.0 mg per mouse and, after 5 days (on the zeroth day), intravenously injecting rabbit anti-mouse GBM serum in a dose amount of 0.1 ml per mouse. After 1 day from the injection of anti-serum, the glomeruli were isolated through sieves with different sizes and washed twice. Each compound to be tested (10^-6 M) was added while the solvent was added to the control groups. The glomeruli were incubated in RPMI-1640 serum-free medium for 48 hours. The amount of production of active TGF-β1 was determined by measuring the supernatant itself after the incubation for 48 hours in ELSA method. Further, the supernatant was treated with hydrochloric acid and the pH was returned with sodium hydroxide. The total amount of TGF-β1 produced in the supernatant was measured in ELISA method. The protein concentration in the medium was also measured as glomeruli protein concentration. The inhibition rate was calculated by the following equation.
(§2) Inhibition rate (%)=100×(value of control group-value of sample)/(value of control group)

total TGF-β1 = test: production of total TGF-β1 in glomeruli isolated from nephritic mice (ELISA); assay type: cell-based, BALB/c male mice; details: Mus musculus, 10^-6 M, 48 hours, supernatant acid treated, read-out: Inhibition rate (%) of production of total TGF-β1
Experimental: as §1, §2

TGF-β1 = test: Glomerular TGF-β1 Expression in IgA Nephropathy in Mice (immunohistochemical staining score); assay type: in vivo, Male ddY mice; details: for staining score (Index), glomerular TGF-β1: 5 weeks, Mean ± S.E.
From the text: Effects of the compounds of the present Invention on the Glomerular TGF-β1 Expression in IgA Nephropahty in Mice
Male ddY mice of 9 weeks old were used, each group consisting of 5 mice. One kidney was nephrectomized from the mice on the zero week, and carbon was intravenously injected from 1 week after the nephrectomy (once per week, total three times). In Experiment 1, administration was commenced on the final day of the intravenous injection of carbon. In Experiment 2, administration was commenced after the mice were allowed to stand for 10 weeks from the intravenous injection of carbon. In both Experiments, the administration was continued for 5 weeks and then the kidney was taken, fixed with […] and embedded in paraffin. Sliced specimens were stained as TGF-β1 positive area by the immunohistochemical analysis method using TGF-β1 antibody.
Staining was evaluated according to the Kagami et al. method (Kagami S., Border WA., Ruslahti E., Noble B.: Coordinated expression of β integrins and transforming growth factor-β induced matrix proteins in glomerulonephritis. Lab Invest 1993, 69, 68-76) and is shown as staining score (Index).

[1] = Experiment 2, 2.0 mg/kg, p < 0.05 vs control

SMILES | Total Evaluation (anti-GBM nephritic mice) | Proteinuria 5th day (anti-GBM nephritic mice) | Proteinuria 10th day (anti-GBM nephritic mice) | Serum Parameter BUN (blood urea nitrogen) (anti-GBM nephritic mice) | Serum Parameter S-Ch (serum cholesterol) (anti-GBM nephritic mice) | Serum Parameter S-Cr (serum creatinine) (anti-GBM nephritic mice) | inhibition at 1 µM (active TGF-β1) [%] | inhibition at 1 µM (total TGF-β1) [%] | further results
COc1cc(CCN(C)C(=O)/C=C/c2cccnc2)ccc1O [Compound 73] | 22 | +++ | +++ | + | +++ | - | 78 | 84 | 
O=C(/C=C/c1cccnc1)NCCc1cccc(O)c1 [Compound 81, (E)-N-(3-hydroxyphenethyl)-3-(3-pyridyl)-2-propenoic acid amide] | 26 | +++ | +++ | +++ | +++ | ++ | 58 |  | 
COc1ccc(CCN(C)C(=O)/C=C/c2cccnc2)cc1OC [Compound 84, (E)-N-(3,4-dimethoxyphenethyl)-N-methyl-3-(3-pyridyl)-2-propenoic acid amide] | 23 | +++ | +++ | +++ | ++ | - | 40 | 85 | 
CCOC(=O)COc1cccc(CCNC(=O)/C=C/c2cccnc2)c1 [Compound 99] | 21 | +++ | +++ | + | - | ++ |  |  | glomerular TGF-β1 expression (TGF-β1; Experiment 1): tendency of inhibiting glomerular TGF-β1 expression; % inhibition of Index (TGF-β1; Experiment 1, 0.1 mg/kg): 15%; staining score (Index), glomerular TGF-β1 (TGF-β1; Experiment 1, 0.1 mg/kg): 0.17 ± 0.04; % inhibition of Index (TGF-β1; Experiment 1, 0.5 mg/kg): 35%; staining score (Index), glomerular TGF-β1 (TGF-β1; Experiment 1, 0.5 mg/kg): 0.13 ± 0.03; % inhibition of Index (TGF-β1; Experiment 1, 2.0 mg/kg): 45%; staining score (Index), glomerular TGF-β1 (TGF-β1; Experiment 1, 2.0 mg/kg): 0.11 ± 0.03; increase of Index (TGF-β1; Experiment 2): significantly inhibited the increase of Index; % inhibition of Index (TGF-β1; Experiment 2, 0.1 mg/kg): 29%; staining score (Index), glomerular TGF-β1 (TGF-β1; Experiment 2, 0.1 mg/kg): 0.29 ± 0.04; staining score (Index), glomerular TGF-β1 (TGF-β1; [1]): 0.18 ± 0.05; % inhibition of Index (TGF-β1; [1]): 56%; production of TGF-β1 in vivo (TGF-β1; Experiments 1 and 2, conclusion): inhibiting action on the production of TGF-β1 in vivo
O=C(O)COc1cccc(CCNC(=O)/C=C/c2cccnc2)c1 [Compound 148] |  |  |  |  |  |  | 45 | 78.3 | 

Source: patent US6313153A, “Compositions and methods for treating nephritis and inhibiting TGF -β related conditions using pyridylacrylamide derivatives” (Tsumura & Co., priority 1997, dated 2001)
